The values that follow come from patent US10227347B2, “Purinyl-N-hydroxyl pyrimidine formamide derivative, preparation methods and uses thereof” (Guizhou Bailing Group Pharmaceutical CO., LTD., priority 2015, dated 2019).

Molecules are shown by their SMILES. A value given as a limit tells only on which side of the number the result lay.

In one assay the target is T1, PI3Kγ (Homo sapiens, UniProt P48736).
T1 construct: purchased Invitrogen PR8641C
Put plainly: PI3Kγ activity inhibition (ADP-Glo). The assay is classed as biochemical. The method in brief:
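Kinase activity measured by ADP-Glo luminescence with PIP2 and ATP substrates in 50 mM HEPES pH 7.5, 3 mM MgCl2, 1 mM EGTA, 100 mM NaCl, 0.03% CHAPS, 2 mM DTT. Reaction ran 1 h at ambient temperature. IC50 was fitted from inhibition ratio versus compound concentration.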

In assay [1] the test system is acetylated Ac-α-tubulin in A2780s cells. Put plainly: Induction of α-tubulin acetylation in A2780s cells (cytoblot). The assay is classed as cell-based. Conditions: Homo sapiens, 6 h treatment, read-out: Ac-Tub EC50. The method, then: Specific operation: After the treatment, washing each well once with 50-100 μl of cold TBS buffer [with the composition as 20 mM Tris (trismetyl aminomethane), pH7.5] and fixing it with 100 μL of 4% pre-cooled paraformaldehyde at 4° C. for 1 h; after paraformaldehyde is washed off, adding 50 μL of pre-cooled methyl alcohol in each well and evenly spreading at 4° C. for 5 min; after methyl alcohol is washed off, washing it once with the TBS buffer containing 3% skim milk powder and adding 50 μL of antibody fluid, oscillating it slightly at 4° C. and incubating overnight. For determination of Ac—H3, the antibody fluid is prepared by diluting Ac—H3 antibody and horseradish peroxide coupled secondary antibody to a same system with the TBS buffer containing 3% skim milk powder (Ac—H3 antibody is purchased from Santa Cruz Company and diluted at a ratio of 1:100; horseradish peroxide coupled secondary antibody is purchased from Jackson Company and diluted at a ratio of 1:2000); for determination of acetylated Ac-α-tubulin, the antibody fluid is prepared by diluting Ac-α-tubulin antibody and horseradish peroxide coupled secondary antibody to a same system with the TBS buffer containing 3% skim milk powder (Ac-α-tubulin antibody is purchased from Santa Cruz Company and diluted at a ratio of 1:100; horseradish peroxide coupled secondary antibody is purchased from Jackson Company and diluted at a ratio of 1:2000).
Calculating the value of IC50 as per the formula: Y=background data+(top data−background data)/(1+10^((Log EC50−X)*rate of curve)) Where, Y refers to the activating rate (%) and X refers to the compound concentration.

The target of another assay is T2, HDAC2 (Homo sapiens, UniProt Q92769).
T2 construct: purchased BPS Bioscience 50002
Put plainly: HDAC2 enzyme inhibition (Lys-Ac-AMC). The assay is classed as biochemical. The following applies: Table 4, graded. The method, then:
(§1) Determining the inhibition capability of HDAC through the substrate method of fluorophore coupled acetylized peptide fragment (Lys-Ac-AMC). HDAC2-11 proteins of subtypes are purchased from BPS Bioscience Company with the Art. […] The reaction buffer system is a modified Tris buffer (pH7.0). The small molecule compounds are prepared and dissolved with 100% DMSO. […] Adding the compound into the reaction wells of the 384 well plate at the designed concentration, then adding 15 μL HDAC enzyme solution into the reaction wells (adding 15 μL blank buffer into the control well 0) for incubation under ambient temperature for 15 min; then adding 10 μL substrate solution to start reaction.
(§2) Analyzing the result data with the software GraphPad Prism and calculating the value of IC50 as per the formula: Y=background data+(top data−background data)/(1+10^((Log IC50−X)*rate of curve)). Where, Y refers to the inhibition ratio (%) and X refers to the compound concentration.

The target of the next assay is T3, HDAC7 (Homo sapiens, UniProt Q8WUI4).
T3 construct: purchased BPS Bioscience 50007
T3 sequence (Q8WUI4 518-952 limits assumed): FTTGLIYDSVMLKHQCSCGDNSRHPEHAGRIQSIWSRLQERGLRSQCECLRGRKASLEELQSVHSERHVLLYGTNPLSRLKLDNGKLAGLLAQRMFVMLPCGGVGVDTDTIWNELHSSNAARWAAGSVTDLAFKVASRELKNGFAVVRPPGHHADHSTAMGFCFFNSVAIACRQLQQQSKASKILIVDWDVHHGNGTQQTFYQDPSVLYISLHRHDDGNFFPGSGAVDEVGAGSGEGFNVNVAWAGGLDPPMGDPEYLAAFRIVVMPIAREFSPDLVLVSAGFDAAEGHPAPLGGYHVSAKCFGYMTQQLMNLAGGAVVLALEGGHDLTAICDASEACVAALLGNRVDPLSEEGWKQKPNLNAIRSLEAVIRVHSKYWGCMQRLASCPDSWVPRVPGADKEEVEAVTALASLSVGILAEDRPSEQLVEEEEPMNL
Put plainly: HDAC7 enzyme inhibition (Lys-Ac-AMC). The assay is classed as biochemical. Conditions: Table 4, graded. Here is the method:
as §1, §2

The target in a further assay is T4, HDAC8 (Homo sapiens, UniProt Q9BY41).
T4 construct: purchased BPS Bioscience 50008
T4 sequence (Q9BY41 1-377): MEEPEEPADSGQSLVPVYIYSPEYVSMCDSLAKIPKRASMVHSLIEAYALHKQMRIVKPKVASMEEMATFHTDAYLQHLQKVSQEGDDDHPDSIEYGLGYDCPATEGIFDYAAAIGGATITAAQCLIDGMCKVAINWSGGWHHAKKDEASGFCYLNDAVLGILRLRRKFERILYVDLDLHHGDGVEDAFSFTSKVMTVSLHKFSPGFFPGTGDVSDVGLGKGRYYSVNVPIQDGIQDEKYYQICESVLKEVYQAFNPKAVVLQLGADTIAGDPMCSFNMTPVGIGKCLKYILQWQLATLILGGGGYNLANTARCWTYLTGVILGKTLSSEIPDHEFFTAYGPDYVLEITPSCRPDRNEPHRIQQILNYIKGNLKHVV
Put plainly: HDAC8 enzyme inhibition (Lys-Ac-AMC). The assay is classed as biochemical. The following applies: Table 4, graded. The method, then: as §1, §2

Another assay addresses T5, HDAC9 (Homo sapiens, UniProt Q9UKV0).
T5 construct: purchased BPS Bioscience 50009
Put plainly: HDAC9 enzyme inhibition (Lys-Ac-AMC). Conditions: Table 4, graded. The assay is classed as biochemical. Here is the method:
as §1, §2

Assay [2] relates to RPMI-8226 cells (multiple myeloma). Put plainly: Proliferation inhibition, RPMI-8226 (cck-8). The assay is classed as cell-based. Conditions: Homo sapiens, 96 h incubation. An excerpt: (§3) Calculating the value of IC50 as per the formula: Y=background data+(top data−background data)/(1+10^((Log IC50−X)*rate of curve)). Where, Y refers to the inhibition ratio (%) and X refers to the compound concentration.

The test system of assay [3] is MM1S cells (multiple myeloma). Put plainly: Proliferation inhibition, MM1S (cck-8). The assay is classed as cell-based. Conditions: Homo sapiens, MM1.S; 96 h incubation.
Description: as §3

The subject of assay [4] is OCI-LY1 cells (B-cell lymphoma). Put plainly: Proliferation inhibition, OCI-LY1 (cck-8). The assay is classed as cell-based. Conditions: Homo sapiens, 96 h incubation.
Description: as §3

T5 sequence (Q9UKV0 1-1066 isoform Q9UKV0-5): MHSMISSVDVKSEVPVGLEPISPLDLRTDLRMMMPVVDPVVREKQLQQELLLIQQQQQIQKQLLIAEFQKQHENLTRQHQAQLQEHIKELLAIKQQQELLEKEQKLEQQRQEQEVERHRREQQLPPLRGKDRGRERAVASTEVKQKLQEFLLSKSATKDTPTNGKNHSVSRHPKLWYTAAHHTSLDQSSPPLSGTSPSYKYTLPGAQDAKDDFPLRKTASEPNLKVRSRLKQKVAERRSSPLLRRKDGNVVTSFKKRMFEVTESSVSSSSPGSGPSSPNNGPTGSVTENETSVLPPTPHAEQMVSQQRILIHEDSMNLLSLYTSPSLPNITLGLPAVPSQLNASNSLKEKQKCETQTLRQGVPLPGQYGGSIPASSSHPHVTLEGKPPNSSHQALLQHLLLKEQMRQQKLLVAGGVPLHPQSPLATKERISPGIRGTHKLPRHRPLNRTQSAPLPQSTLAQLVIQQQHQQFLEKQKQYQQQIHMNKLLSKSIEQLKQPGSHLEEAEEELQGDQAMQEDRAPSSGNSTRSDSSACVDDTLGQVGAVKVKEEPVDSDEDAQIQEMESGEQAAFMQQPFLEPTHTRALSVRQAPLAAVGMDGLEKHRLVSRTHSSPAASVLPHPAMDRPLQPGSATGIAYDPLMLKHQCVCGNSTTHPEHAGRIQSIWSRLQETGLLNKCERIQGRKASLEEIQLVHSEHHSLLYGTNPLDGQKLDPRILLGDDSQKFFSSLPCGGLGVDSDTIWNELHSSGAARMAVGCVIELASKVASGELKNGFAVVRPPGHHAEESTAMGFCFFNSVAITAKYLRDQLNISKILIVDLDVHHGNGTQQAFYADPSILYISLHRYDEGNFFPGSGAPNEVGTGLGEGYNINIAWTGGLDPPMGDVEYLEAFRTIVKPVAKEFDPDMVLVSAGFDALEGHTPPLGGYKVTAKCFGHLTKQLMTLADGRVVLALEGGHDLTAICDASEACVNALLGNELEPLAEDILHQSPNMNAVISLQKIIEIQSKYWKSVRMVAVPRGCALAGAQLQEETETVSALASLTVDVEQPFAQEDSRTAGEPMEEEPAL
T2 sequence (Q92769 whole entry, species assumed): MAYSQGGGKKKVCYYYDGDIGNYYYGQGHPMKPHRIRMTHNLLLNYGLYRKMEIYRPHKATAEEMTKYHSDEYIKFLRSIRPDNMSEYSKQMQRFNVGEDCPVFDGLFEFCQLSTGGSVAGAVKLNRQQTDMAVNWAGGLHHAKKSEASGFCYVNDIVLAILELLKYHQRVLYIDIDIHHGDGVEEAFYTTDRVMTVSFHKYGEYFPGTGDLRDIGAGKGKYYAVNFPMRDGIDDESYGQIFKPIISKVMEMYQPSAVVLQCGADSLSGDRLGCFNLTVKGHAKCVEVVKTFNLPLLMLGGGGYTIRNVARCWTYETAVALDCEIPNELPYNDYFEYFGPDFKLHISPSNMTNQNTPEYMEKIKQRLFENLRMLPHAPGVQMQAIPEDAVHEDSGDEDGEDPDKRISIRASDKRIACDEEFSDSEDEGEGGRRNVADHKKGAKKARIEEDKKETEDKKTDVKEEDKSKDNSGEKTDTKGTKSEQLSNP
T1 sequence (P48736 whole entry): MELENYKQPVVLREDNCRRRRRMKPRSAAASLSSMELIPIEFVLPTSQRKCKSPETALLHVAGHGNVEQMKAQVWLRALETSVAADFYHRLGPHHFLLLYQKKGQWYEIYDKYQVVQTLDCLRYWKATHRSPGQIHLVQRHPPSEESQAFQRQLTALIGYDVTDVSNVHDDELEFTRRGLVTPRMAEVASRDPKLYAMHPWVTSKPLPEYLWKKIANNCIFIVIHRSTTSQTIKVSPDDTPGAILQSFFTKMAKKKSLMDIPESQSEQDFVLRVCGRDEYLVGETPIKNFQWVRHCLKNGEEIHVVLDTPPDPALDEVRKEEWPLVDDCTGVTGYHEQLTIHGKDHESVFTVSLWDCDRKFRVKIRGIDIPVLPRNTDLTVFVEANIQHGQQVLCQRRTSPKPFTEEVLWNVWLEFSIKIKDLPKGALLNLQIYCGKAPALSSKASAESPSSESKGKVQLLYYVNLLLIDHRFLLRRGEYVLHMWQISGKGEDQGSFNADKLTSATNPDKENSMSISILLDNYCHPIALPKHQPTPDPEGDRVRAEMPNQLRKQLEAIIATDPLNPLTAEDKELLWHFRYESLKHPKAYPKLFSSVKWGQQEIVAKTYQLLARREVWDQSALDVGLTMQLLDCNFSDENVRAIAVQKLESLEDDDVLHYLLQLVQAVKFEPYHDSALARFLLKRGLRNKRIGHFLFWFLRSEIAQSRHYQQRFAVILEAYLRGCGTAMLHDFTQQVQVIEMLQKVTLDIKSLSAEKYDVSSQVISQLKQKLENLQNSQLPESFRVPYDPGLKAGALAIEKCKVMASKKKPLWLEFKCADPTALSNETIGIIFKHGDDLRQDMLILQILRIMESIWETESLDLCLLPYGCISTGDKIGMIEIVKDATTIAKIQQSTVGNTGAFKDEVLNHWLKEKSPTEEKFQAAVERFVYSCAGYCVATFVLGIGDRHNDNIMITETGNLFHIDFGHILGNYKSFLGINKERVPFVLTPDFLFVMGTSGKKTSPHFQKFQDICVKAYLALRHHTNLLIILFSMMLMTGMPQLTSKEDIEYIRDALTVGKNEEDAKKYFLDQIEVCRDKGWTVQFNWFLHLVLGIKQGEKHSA

As to `CN(Cc1nc2c(N3CCOCC3)nc(-c3cnc(N)nc3)nc2n1C)c1ncc(C(=O)NO)cn1` [CLJ-11, 2-(((2-(2-aminopyrimidine-5-yl)-9-methyl-6-morpholine-9H-purine-8-yl))methyl(methyl)amino)-N-hydroxyl pyrimidine-5-formamide], the IC50 on PI3Kγ (Table 1, graded) was 100 to 1000 nM; against PI3Kγ (Table 4, graded), 1 to 100 nM; against HDAC2 it was 1 to 100 nM; against HDAC7, 100 to 1000 nM; against HDAC8 it was 1 to 100 nM; against HDAC9, 1000 to 10000 nM. Further, the IC50 was 10 to 100 nM in assay [2], 1 to 10 nM in [3] and 100 to 1000 nM in assay [4]. For the same compound, the EC50 in [1] was 100 to 200 nM.

As to `Cc1[nH]c2ccccc2c1CCNCc1ccc(/C=C/C(=O)NO)cc1` [LBH589, panobinostat, reference compound], the concentration for half-maximal inhibition (IC50) on PI3Kγ (Table 4, graded) is above 10000 nM; in assay [2], 1 to 10 nM; in [3], 1 to 10 nM; in [4], 10 to 100 nM. The 50% effective concentration (EC50) in [1] lay in the range of 100 to 200 nM.

On to `CN(Cc1nc2c(N3CCOCC3)nc(-c3ccc(N)cc3)nc2n1C)c1ncc(C(=O)NO)cn1` [CLJ-44], for which the IC50 was above 10000 nM against PI3Kγ (Table 4, graded); 1 to 100 nM on HDAC2; 1000 to 10000 nM on HDAC7; 1 to 100 nM against HDAC8; 1000 to 10000 nM against HDAC9; 0.1 to 1 nM in [2]. For the same compound, the IC50 lay in the range of 1 to 10 nM in [3] and 10 to 100 nM in assay [4]. Further, in assay [1], the 50% effective concentration (EC50) was above 200 nM.

As for `COc1ccc(-c2nc(N3CCOCC3)c3nc(CN(C)c4ncc(C(=O)NO)cn4)n(C)c3n2)cn1` [CLJ-1, 2-(((2-(6-methoxypyridine-3-yl)-9-methyl-6-morpholine-9H-purine-8-yl))methyl(methyl)amino)-N-hydroxyl pyrimidine-5-formamide], the IC50 on PI3Kγ (Table 1, graded) lay within 100 to 1000 nM; on PI3Kγ (Table 4, graded), 100 to 1000 nM; against HDAC2 it was 1 to 100 nM; at HDAC7, 1000 to 10000 nM; on HDAC8, 100 to 1000 nM; at HDAC9, 1000 to 10000 nM. Moreover, the IC50 in assay [2] fell in the range of 1 to 10 nM; in assay [3], 0.1 to 1 nM; in [4], 10 to 100 nM. Further, the EC50 in [1] lay within 100 to 200 nM.

Turning to `COc1ccc(-c2nc(N3CCOCC3)c3nc(CN(C)c4ncc(C(=O)NO)cn4)n(C)c3n2)cc1` [CLJ-29, 2-(((2-(4-methoxyphenyl)-9-methyl-6-morpholine-9H-purine-8-yl))methyl(methyl)amino)-N-hydroxyl pyrimidine-5-formamide], the half-maximal inhibitory concentration (IC50) against PI3Kγ (Table 4, graded) was above 10000 nM; at HDAC2, 1 to 100 nM; against HDAC7 it was 1000 to 10000 nM; against HDAC8, 1 to 100 nM; on HDAC9 it was 1000 to 10000 nM; in assay [2], 0.1 to 1 nM. Moreover, the results for the IC50 in assay [3] and in assay [4] were 0.1 to 1 nM and 1 to 10 nM, respectively. Also, the half-maximal effective concentration (EC50) in assay [1] was above 200 nM.

As a reminder, the IC50 is the concentration needed to halve the response being measured. Low values mean inhibition by little substance, high ones a need for much substance. Broadly, the EC50 is the concentration at which the effect is half-maximal.
